ChEMBL document CHEMBL3286387, “α-Tetralone derivatives as inhibitors of monoamine oxidase” (Bioorg Med Chem Lett, 2014)

How the values were obtained:
[1] = molecular target: T1, Amine oxidase [flavin-containing] A (Homo sapiens, UniProt P21397); experiment: Inhibition of recombinant human MAO-A using kynuramine as substrate assessed as 4-hydroxyquinoline production after 30 mins by fluorescence spectrophotometry analysis
T1 sequence (P21397 whole entry): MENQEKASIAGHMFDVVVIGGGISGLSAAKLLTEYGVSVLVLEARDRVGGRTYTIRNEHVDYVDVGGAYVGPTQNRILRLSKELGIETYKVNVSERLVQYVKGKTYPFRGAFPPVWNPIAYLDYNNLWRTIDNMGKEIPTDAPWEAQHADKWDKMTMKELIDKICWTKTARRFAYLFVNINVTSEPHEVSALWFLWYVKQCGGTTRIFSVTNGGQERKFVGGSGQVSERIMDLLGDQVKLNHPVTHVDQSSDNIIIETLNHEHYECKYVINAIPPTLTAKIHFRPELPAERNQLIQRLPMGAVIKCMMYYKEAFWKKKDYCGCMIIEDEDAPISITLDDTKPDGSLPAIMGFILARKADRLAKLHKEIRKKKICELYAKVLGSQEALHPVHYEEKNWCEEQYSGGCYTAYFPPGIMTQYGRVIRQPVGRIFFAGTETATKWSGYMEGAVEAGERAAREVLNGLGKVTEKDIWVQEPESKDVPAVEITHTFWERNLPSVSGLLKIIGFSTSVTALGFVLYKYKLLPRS

[2] = molecular target: T1, Amine oxidase [flavin-containing] A; experiment: Reversible inhibition of recombinant human MAO-A using kynuramine as substrate assessed as enzyme residual activity at 4 times IC50 incubated for 15 mins measured after 24 hrs of dialysis by fluorescence spectrophotometry analysis relative to control
Homo sapiens = species: Homo sapiens; experiment: Selectivity index, ratio of IC50 for recombinant human MAO-A to IC50 for recombinant human MAO-B
[3] = molecular target: T2, Amine oxidase [flavin-containing] B (Homo sapiens, UniProt P27338); experiment: Inhibition of recombinant human MAO-B using kynuramine as substrate assessed as 4-hydroxyquinoline production after 30 mins by fluorescence spectrophotometry analysis
T2 sequence (P27338 whole entry): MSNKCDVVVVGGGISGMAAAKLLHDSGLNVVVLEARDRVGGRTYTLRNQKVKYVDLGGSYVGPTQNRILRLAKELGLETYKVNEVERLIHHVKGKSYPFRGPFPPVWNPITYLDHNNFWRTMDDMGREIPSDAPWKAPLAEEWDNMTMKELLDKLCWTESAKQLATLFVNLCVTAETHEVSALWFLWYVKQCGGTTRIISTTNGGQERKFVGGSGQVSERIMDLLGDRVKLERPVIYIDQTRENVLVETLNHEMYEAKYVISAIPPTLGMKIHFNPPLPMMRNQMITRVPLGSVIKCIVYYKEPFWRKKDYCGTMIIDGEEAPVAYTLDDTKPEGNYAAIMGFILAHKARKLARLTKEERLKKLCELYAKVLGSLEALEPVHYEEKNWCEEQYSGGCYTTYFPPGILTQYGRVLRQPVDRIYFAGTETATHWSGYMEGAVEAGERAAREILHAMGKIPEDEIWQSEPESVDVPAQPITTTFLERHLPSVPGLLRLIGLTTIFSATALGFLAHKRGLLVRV

[4] = molecular target: T1, Amine oxidase [flavin-containing] A; experiment: Competitive inhibition of recombinant human MAO-A using kynuramine as substrate by Lineweaver-Burk plot analysis
[5] = molecular target: T1, Amine oxidase [flavin-containing] A; experiment: Reversible inhibition of recombinant human MAO-A using kynuramine as substrate assessed as enzyme residual activity at 4 times IC50 incubated for 15 mins measured after 24 hrs by fluorescence spectrophotometry analysis relative to control
[6] = molecular target: T2, Amine oxidase [flavin-containing] B; experiment: Reversible inhibition of recombinant human MAO-B using kynuramine as substrate assessed as enzyme residual activity at 4 times IC50 incubated for 15 mins measured after 24 hrs by fluorescence spectrophotometry analysis relative to control
[7] = molecular target: T2, Amine oxidase [flavin-containing] B; experiment: Competitive inhibition of recombinant human MAO-B using kynuramine as substrate by Lineweaver-Burk plot analysis

O=C1CCCc2cc(OCc3ccc(Cl)cc3)ccc21
IC50 [1]: 0.238 µM

O=C1CCCc2cc(OCc3ccc(F)cc3)ccc21
IC50 [1]: 0.266 µM

C#CCN(C)Cc1ccccc1 [PARGYLINE]
Activity [2]: 1.6%

O=C1CCCc2cc(OCCCc3ccccc3)ccc21
IC50 [1]: 1.16 µM | Ratio IC50 (Homo sapiens): 36 | IC50 [3]: 0.032 µM

N#Cc1cccc(COc2ccc3c(c2)CCCC3=O)c1
IC50 [1]: 0.024 µM | Ratio IC50 (Homo sapiens): 0.3 | Ki [4]: 0.025 µM | IC50 [3]: 0.078 µM | Activity [2]: 108% | Activity [5]: 44%

Cc1ccc(COc2ccc3c(c2)CCCC3=O)cc1
IC50 [1]: 2.09 µM | Ratio IC50 (Homo sapiens): 190 | IC50 [3]: 0.011 µM

O=C1CCCc2cc(OCc3ccc(I)cc3)ccc21
IC50 [1]: 2.25 µM | Ratio IC50 (Homo sapiens): 346 | IC50 [3]: 0.0065 µM

N#Cc1ccc(COc2ccc3c(c2)CCCC3=O)cc1
IC50 [1]: 0.656 µM | Ratio IC50 (Homo sapiens): 60 | IC50 [3]: 0.011 µM

O=C1CCCc2cc(OCc3ccc(Br)cc3)ccc21
IC50 [1]: 0.311 µM | Ratio IC50 (Homo sapiens): 35 | IC50 [3]: 0.009 µM

O=C1CCCc2cc(OCc3cccc(Cl)c3)ccc21
IC50 [1]: 0.207 µM | Ratio IC50 (Homo sapiens): 14 | IC50 [3]: 0.015 µM

O=C1CCCc2cc(OCc3ccc(C(F)(F)F)cc3)ccc21
IC50 [1]: 0.547 µM | Ratio IC50 (Homo sapiens): 91 | IC50 [3]: 0.006 µM

O=C1CCCc2cc(OCc3ccccc3)ccc21
IC50 [1]: 0.792 µM | Ratio IC50 (Homo sapiens): 13 | IC50 [3]: 0.063 µM

O=C1CCCc2cc(OCc3cccc(F)c3)ccc21
IC50 [1]: 0.392 µM | Ratio IC50 (Homo sapiens): 23 | IC50 [3]: 0.017 µM

O=C1CCCc2cc(OCc3cccc(I)c3)ccc21
IC50 [1]: 1.29 µM | Ratio IC50 (Homo sapiens): 287 | IC50 [3]: 0.0045 µM | Activity [6]: 23% | Ki [7]: 0.0071 µM

O=C1CCCc2cc(OCCc3ccccc3)ccc21
IC50 [1]: 1.32 µM | Ratio IC50 (Homo sapiens): 40 | IC50 [3]: 0.033 µM

O=C1CCCc2ccccc21
IC50 [1]: 14.8 µM | Ratio IC50 (Homo sapiens): 0.8 | IC50 [3]: 18.6 µM

O=C1CCCc2cc(OCc3cccc(Br)c3)ccc21
IC50 [1]: 0.212 µM | Ratio IC50 (Homo sapiens): 24 | IC50 [3]: 0.009 µM

O=C1CCCc2cc(O)ccc21
IC50 [1]: 43.8 µM | Ratio IC50 (Homo sapiens): 0.7 | IC50 [3]: 66.4 µM
